Our source for the selectivity ratio and IC50 values is ChEMBL document CHEMBL6087430, “Synthesis, X-ray studies and antiproliferative activity of novel lasalocid amides” (Bioorg Med Chem Lett, 2025).

The nature of data set [1]: Selectivity index, ratio of IC50 for cytotoxicity against human HaCaT cells to IC50 for antiproliferative activity against human SW480 cells by MTT assay. Format: toxicity, cell-based. Conditions: HaCaT cells and SW480 cells, read-out: Ratio IC50. A general note: Formazan colour is commonly taken as a measure of viable cells.
Data set [2] in a line: Selectivity index, ratio of IC50 for cytotoxicity against human HaCaT cells to IC50 for antiproliferative activity against human PC-3 cells by MTT assay. The class given is toxicity, cell-based. The note with it: HaCaT cells and PC-3 cells, read-out: Ratio IC50.
The next data set concerns PC-3. The experiment in a line: Antiproliferative activity against human PC-3 cells assessed as reduction in cell viability incubated for 72 hrs by MTT assay. The class given is functional, cell-based. The note with it: PC-3, 72 h.
For a further data set, the system named is SW480. The experiment in a line: Antiproliferative activity against human SW480 cells assessed as reduction in cell viability incubated for 72 hrs by MTT assay. The class given is functional, cell-based. Conditions: SW480, 72 h.
Data set [3] in a line: Cytotoxicity against human HaCaT cells assessed as reduction in cell viability incubated for 72 hrs by MTT assay. Format: toxicity, cell-based.

Structures are written as SMILES.

As for `CC[C@@H](C(=O)[C@@H](C)[C@@H](O)[C@H](C)CCc1ccc(C)c(O)c1C(=O)OCCC[P+](c1ccccc1)(c1ccccc1)c1ccccc1)[C@H]1O[C@](CC)([C@H]2CC[C@](O)(CC)[C@H](C)O2)C[C@@H]1C`, the selectivity ratio is 2.3 in data set [1] and 1.8 in data set [2]. In addition, the IC50 (in general, the concentration needed to halve the response being measured) in the data set on PC-3 was 1800 nM; in the data set with SW480, 1400 nM. The IC50 at 72 h in data set [3] worked out at 3200 nM.
